Nine molecules from US12239711B2, “Cereblon ligands and bifunctional compounds comprising the same” (Arvinas Operations, Inc., priority 2014, dated 2025) can be followed below.

Assay type in all cases: cell-based
Experiment [1] deals with androgen receptor (AR). The experiment in a line: AR ELISA assay in LNCaP and/or VCaP cells. The following applies: 5 hours. As for the experimental part: 4. AR ELISA Assay Protocol for Table 6
Compounds were evaluated in this assay in LNCaP and/or VCaP cells utilizing similar protocols. The protocols used with VCaP cells are described below. The androgen receptor ELISA assay was performed using PathScani AR Sandwich ELISA (Cell Signaling Catalog #12850) according to the following assay steps:
VCaP cells were seeded at 40,000 cells/well at a volume of 100 μL/well in VCaP assay medium [Phenol red free RPMI (Gibco Cat #11835-030); 5% Charcoal Stripped (Dextran treated) FBS (Omega Scientific, Cat #FB-04); 1% penstrep (Life Technologies, Gibco Cat #: 10378-016)] in Corning 3904 plates. The cells were incubated for a minimum of 3 days. Cells were dosed with PROTACs diluted in 0.01% DMSO and the drug treatment was allowed for 5 hours.
AR ELISA (Cell Signaling) was performed as follows: 1× Cell Signaling Cell lysis buffer was made (Catalogue #9803; comes with the kit). Media from the treated wells is aspirated, and 100 μL 1× cell lysis buffer/well is added. The cells were placed on a shaker for 10 minutes at 4° C. Twenty microliters of lysate was transferred to 100 μl of Diluent in ELISA plate (0.15 μg/ml-0.075 μg/ml). The lysate-diluent mixture was shaken for 30 minutes at 37° C. Allow mouse AR antibody, anti-mouse antibody, TMB, and STOP solution to come to room temperature. The 1× ELISA buffer included in kit was made and loaded in the reservoir. Media from the plates was discarded, the ELISA plate tapped hard on paper towel, and washed 4×200 μl ELISA wash buffer using a plate washer.
One-hundred (100) μL/well of mouse AR detection Ab was added; the plates were covered and shaken at 37° C. for 1 hour; media was discarded from the plates, the plates were tapped on a paper towel, washed 4× with 200 μL ELISA wash buffer with a plate washer.
One-hundred (100) μL/well of anti-mouse—HRP conjugated Ab (comes with the kit) was added; the plates were covered and shaken at 37° C. for 30 minutes; the TMB reagent was allowed to come to room temperature; the media was discard from the plate, the plates were tapped on paper towl, washed 4× with 200 μL of ELISA wash buffer; the plates were tapped the plates on paper towl. One-hundred (100) μL of TMB was added and the plates shaken for 2 minutes—while watching for color development. One-hundred (100) μL Stop solution was added when light blue color developed. Plates were shaken and read at 450 nm.
Progression of prostate cancer in patients treated with anti-androgen therapy usually involves one of several mechanisms of enhanced Androgen Receptor (AR) signaling, including increased intratumoral androgen synthesis, increased AR expression and AR mutations. PROTACs (PROteolysis TArgeting Chimera), which use bi-functional molecules that simultaneously bind a target of choice and an E3 ligase, cause ubiquitination via induced proximity and degradation of the targeted, pathological protein. As opposed to traditional target inhibition, which is a competitive process, degradation is a progressive process. As such, it is less susceptible to increases in endogenous ligand, target expression, or mutations in the target. Thus, this technology appears to be ideal for addressing the mechanisms of AR resistance in patients with prostate cancer. Data was analyzed and plotted using GraphPad Prism software.
A general note: An ELISA detects its analyte on a solid surface through an enzyme-linked reagent.

For experiment [2], the target named is T1, BRaf (Homo sapiens, UniProt P15056, V600E).
T1 construct: endogenous in cells; host or cells: A375 cells
T1 sequence (P15056 whole entry V600E): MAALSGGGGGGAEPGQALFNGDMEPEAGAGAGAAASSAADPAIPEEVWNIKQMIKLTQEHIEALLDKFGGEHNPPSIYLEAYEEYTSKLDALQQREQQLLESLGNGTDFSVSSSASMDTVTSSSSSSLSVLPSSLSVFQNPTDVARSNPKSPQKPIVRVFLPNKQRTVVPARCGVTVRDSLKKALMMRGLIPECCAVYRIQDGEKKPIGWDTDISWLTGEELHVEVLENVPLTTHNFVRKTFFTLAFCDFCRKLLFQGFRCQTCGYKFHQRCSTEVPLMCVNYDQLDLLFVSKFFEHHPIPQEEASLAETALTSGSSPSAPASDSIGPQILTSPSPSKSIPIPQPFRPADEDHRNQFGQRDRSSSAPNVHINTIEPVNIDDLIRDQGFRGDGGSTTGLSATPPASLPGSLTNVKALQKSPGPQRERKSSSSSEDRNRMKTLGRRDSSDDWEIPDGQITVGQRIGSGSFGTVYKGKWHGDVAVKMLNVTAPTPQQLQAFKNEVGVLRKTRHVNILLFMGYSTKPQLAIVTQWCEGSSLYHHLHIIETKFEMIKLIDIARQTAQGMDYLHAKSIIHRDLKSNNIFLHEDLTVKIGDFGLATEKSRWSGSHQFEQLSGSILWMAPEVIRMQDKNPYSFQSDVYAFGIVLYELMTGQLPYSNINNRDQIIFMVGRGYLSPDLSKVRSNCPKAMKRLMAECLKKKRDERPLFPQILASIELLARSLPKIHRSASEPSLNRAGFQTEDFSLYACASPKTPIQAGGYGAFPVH
T1 sequence (Q96SW2 whole entry partner): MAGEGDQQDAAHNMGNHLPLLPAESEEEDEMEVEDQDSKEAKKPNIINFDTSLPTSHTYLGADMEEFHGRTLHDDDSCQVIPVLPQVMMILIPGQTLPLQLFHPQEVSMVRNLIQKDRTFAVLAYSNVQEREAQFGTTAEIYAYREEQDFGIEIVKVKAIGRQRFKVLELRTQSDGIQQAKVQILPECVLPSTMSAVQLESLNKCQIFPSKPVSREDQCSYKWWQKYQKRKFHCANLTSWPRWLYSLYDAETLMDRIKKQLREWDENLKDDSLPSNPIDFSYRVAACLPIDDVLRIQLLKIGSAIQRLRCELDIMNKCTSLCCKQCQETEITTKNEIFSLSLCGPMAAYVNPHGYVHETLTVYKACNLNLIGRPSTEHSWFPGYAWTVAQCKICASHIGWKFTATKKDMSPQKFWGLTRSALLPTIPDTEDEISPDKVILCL
Kind of experiment: BRaf protein degradation assay in A375 cells (western blot / In-Cell Western). Particulars: for Dmax: A-375. The protocol:
5. BRaf Protein In Vitro Degradation Assay (A375 Cells) of Table 7
A375 cells were cultured in ATCC DMEM+10% FBS in 12 well plates, and treated with indicated compound from Tables 1-41 or 0.1% DMSO vehicle control for 16 hours. Cells were harvested in Cell Signaling lysis buffer (Cat #9803) with the addition of Roche protease inhibitor tablets (Cat #11873580001), and lysates clarified by microcentrifugation. Proteins were separated by SDS-PAGE, and transferred onto nitrocellulose membranes using an Invitrogen iBlot system. Immunoblotting was performed for BRaf (Santa Cruz Cat #9002), CRAF (BD Cat #610151), and pErk (Cell Signaling Cat #9106). GAPDH (Cell Signaling Cat #2118) was used as a loading control. Quantification was carried out using the BioRad Image Lab 5 software.
6. BRaf In-Cell Western Cellular Degradation Assay (A375 Cells) of Table 7
A375 cells were cultured in ATCC DMEM+10% FBS in 96-well plates, and treated with indicated compounds from Tables-43 or 0.1% DMSO vehicle control for 72 hours. Cells were washed with PBS 1×, and affixed to plate using 4% PFA in phosphate buffered saline for 15 minutes; washed 1× and permeabilized using 0.1% Triton-X-100 in PBS for 5 minutes; washed 1× and blocked with LICOR blocker (Cat. #927-50000) for 1 hour. Cells were then incubated with B-Raf antibody (Santa Cruz Cat #9002, Santa Cruz Cat #528) and tubulin antibody (Sigma #T6074) in LICOR blocker for 18 hours. Cells were washed 3× prior to adding secondary antibodies (LICOR cat #926-32210 and 926-68071) and incubated for 1 hour. Cells were washed 3× and imaged using LICOR Odyssey Software.
A general note: A western blot detects proteins with antibodies after separation by electrophoresis.

Experiment [3] has as its target T2, BRD4 (Homo sapiens, UniProt O60885).
T2 construct: 22Rv-1 or VCaP cells were purchased from ATCC and cultured in Dulbecco's Modified Eagle's Medium; host or cells: 22Rv-1 or VCaP cells
Kind of experiment: BRD4 Western protocol in 22Rv-1 or VCaP cells. The following applies: 16 hours, western blot. As for the experimental part:
7. BRD4 Western Protocol for Table 8
22Rv-1 or VCaP cells were purchased from ATCC and cultured in Dulbecco's Modified Eagle's Medium (ATCC), supplemented with 10% FBS (ATCC) and Penicillin/Streptomycin (Life Technologies). DMSO control and compound treatments (0.003 μM, 0.01 μM, 0.03 μM and 0.1 μM) were performed in 12-well plates for 16 hours. Cells were harvested, and lysed in RIPA buffer (50 mM Tris pH8, 150 mM NaCl, 1% Tx-100, 0.1% SDS, 0.5% sodium deoxycholate) supplemented with protease and phosphatase inhibitors. Lysates were clarified at 16,000 g for 10 minutes, and protein concentration was determined. Equal amount of protein (20 μg) was subjected to SDS-PAGE analysis and followed by immunoblotting according to standard protocols. The antibodies used were BRD4 (Cell Signaling #13440), and Actin (Sigma #5441). Detection reagents were Clarity Western ECL substrate (Bio-rad #170-5060).

Take `CC1(C)[C@H](NC(=O)c2ccc(N3CCC(CCN4CCN(c5cc6c(cn5)C(=O)N(C5CCC(=O)NC5=O)C6=O)CC4)CC3)cc2)C(C)(C)[C@H]1Oc1ccc(C#N)c(Cl)c1` (mixture of isomers) [compound 51, rac-N-((1r,3r)-3-(3-chloro-4-cyanophenoxy)-2,2,4,4-tetramethylcyclobutyl)-4-(4-(2-(4-(2-(2,6-dioxopiperidin-3-yl)-1,3-dioxo-2,3-dihydro-1H-pyrrolo[3,4-c]pyridin-6-yl)piperazin-1-yl)ethyl)piperidin-1-yl)benzamide]: in experiment [1], the “AR Dmax” value is “A (A >= 75)” and the DC50 is less than 1 nM.

Turning to `CC1(C)[C@H](NC(=O)c2ccc(N3CCC(CCN4CCN(c5ncc6c(n5)C(=O)N(C5CCC(=O)NC5=O)C6=O)CC4)CC3)cc2)C(C)(C)[C@H]1Oc1ccc(C#N)c(Cl)c1` (mixture of isomers) [compound 52, (rac)-N-((1r,3r)-3-(3-chloro-4-cyanophenoxy)-2,2,4,4-tetramethylcyclobutyl)-4-(4-(2-(4-(6-(2,6-dioxopiperidin-3-yl)-5,7-dioxo-6,7-dihydro-5H-pyrrolo[3,4-d]pyrimidin-2-yl)piperazin-1-yl)ethyl)piperidin-1-yl)benzamide], in experiment [1], the “AR Dmax” value is reported as “B (50 <= B < 75)” and the DC50 was less than 1 nM.

In experiment [2], `O=C1CCC(N2C(=O)c3cc(N4CCN(c5ccc(-n6cc(-c7ccc8c(c7)CC/C8=N\O)c(-c7ccncc7)n6)cc5)CC4)cc(-c4ccccc4)c3C2=O)C(=O)N1` (stereo not drawn) [compound 39, (E)-2-(2,6-dioxopiperidin-3-yl)-6-(4-(4-(4-(1-(hydroxyimino)-2,3-dihydro-1H-inden-5-yl)-3-(pyridin-4-yl)-1H-pyrazol-1-yl)phenyl)piperazin-1-yl)-4-phenylisoindoline-1,3-dione] gave a DC50 of 10 to 100 nM and a Dmax of 50 to 75%.

In experiment [2], `Cc1cc2c(cc1N1CCN(c3ccc(-n4cc(-c5ccc6c(c5)CC/C6=N\O)c(-c5ccncc5)n4)cc3)CC1)C(=O)N(C1CCC(=O)NC1=O)C2=O` (stereo not drawn) [compound 40, (E)-2-(2,6-dioxopiperidin-3-yl)-5-(4-(4-(4-(1-(hydroxyimino)-2,3-dihydro-1H-inden-5-yl)-3-(pyridin-4-yl)-1H-pyrazol-1-yl)phenyl)pipeiazin-1-yl)-6-methylisoindoline-1,3-dione] had a DC50 of 10 to 100 nM and a Dmax of no less than 75%.

Regarding `O=C1CCC(N2C(=O)c3ccc(N4CCN(c5ccc(-n6cc(-c7ccc8c(c7)CC/C8=N\O)c(-c7ccncc7)n6)cc5)CC4)c(-c4ccccc4)c3C2=O)C(=O)N1` (stereo not drawn) [compound 41, (E)-2-(2,6-dioxopiperidin-3-yl)-5-(4-(4-(4-(1-(hydroxyimino)-2,3-dihydro-1H-inden-5-yl)-3-(pyridin-4-yl)-1H-pyrazol-1-yl)phenyl)piperazin-1-yl)-4-phenylisoindoline-1,3-dione], in experiment [2], the DC50 lay in the range of 10 to 100 nM and the Dmax is no less than 75%.

Turning to `Cc1c(N2CCN(c3ccc(-n4cc(-c5ccc6c(c5)CC/C6=N\O)c(-c5ccncc5)n4)cc3)CC2)ccc2c1C(=O)N(C1CCC(=O)NC1=O)C2=O` (stereo not drawn) [compound 42, (E)-2-(2,6-dioxopiperidin-3-yl)-5-(4-(4-(4-(1-(hydroxyimino)-2,3-dihydro-1H-inden-5-yl)-3-(pyridin-4-yl)-1H-pyrazol-1-yl)phenyl)piperazin-1-yl)-4-methylisoindoline-1,3-dione], in experiment [2], the DC50 is 10 to 100 nM and the Dmax lay within 50 to 75%.

With `Cc1sc2c(c1C)C(c1ccc(Cl)cc1)=N[C@@H](CC(=O)Nc1ccc(OCCOCCOCCOCCNc3cccc4c3CN([C@H]3CCC(=O)NC3)C4=O)cc1)c1nnc(C)n1-2` [compound 43, 2-((R)-4-(4-chlorophenyl)-2,3,9-trimethyl-6H-thieno[3,2-f][1,2,4]triazolo[4,3-a][1,4]diazepin-6-yl)-N-(4-(2-(2-(2-(2-((1-oxo-2-((R)-6-oxopiperidin-3-yl)isoindolin-4-yl)amino)ethoxy)ethoxy)ethoxy)ethoxy)phenyl)acelamide], in experiment [3], the DC50 was no less than 100 nM and the Dmax fell in the range of 50 to 75%.

In experiment [3], `Cc1sc2c(c1C)C(c1ccc(Cl)cc1)=N[C@@H](CC(=O)Nc1ccc(OCCOCCOCCOCCOc3cccc4c(=O)n(C5CCC(=O)NC5=O)c(C)nc34)cc1)c1nnc(C)n1-2` (stereo partly drawn) [compound 44, 2-((S)-4-(4-chlorophenyl)-2,3,9-trimethyl-6H-thieno[3,2-f][1,2,4]triazolo[4,3-a][1,4]diazepin-6-yl)-N-(4-(2-(2-(2-(2-((3-(2,6-dioxopiperidin-3-yl)-2-methyl-4-oxo-3,4-dihydroquinazolin-8-yl)oxy)ethoxy)ethoxy)ethoxy)ethoxy)phenyl)acetamide] yielded a DC50 of no less than 100 nM and a Dmax of less than 50%.

Regarding `Cc1sc2c(c1C)C(c1ccc(Cl)cc1)=N[C@@H](CC(=O)Nc1ccc(OCCOCCOCCOCCOc3ccc4c(=O)n(C5CCC(=O)NC5=O)c(C)nc4c3)cc1)c1nnc(C)n1-2` (stereo partly drawn) [compound 45, 2-((S)-4-(4-chlorophenyl)-2,3,9-trimethyl-6H-thieno[3,2-f][1,2,4]triazolo[4,3-a][1,4]diazepin-6-yl)-N-(4-(2-(2-(2-(2-((3-(2,6-dioxopiperidin-3-yl)-2-methyl-4-oxo-3,4-dihydroquinazolin-7-yl)oxy)ethoxy)ethoxy)ethoxy)ethoxy)phenyl)acetamide], in experiment [3], the DC50 fell in the range of 10 to 100 nM and the Dmax is no less than 75%.
